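Growth conditions: 96-well plates. Treatment: test compound, 48 hours, 5 concentrations. Analysis: linear interpolation between bracketing concentrations; unreached endpoints set to highest concentration. TGI: total growth inhibition.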
Legend:
Assay in all cases: DTP human tumour cell line panel, 48 h
[1] = system: 786-0 renal
[2] = system: A498 renal
[3] = system: A549 NSCLC
[4] = system: ACHN renal
[5] = system: CAKI-1 renal
[6] = system: CCRF-CEM leukemia
[7] = system: DLD-1 colon
[8] = system: DMS 114 small cell lung
[9] = system: DMS 273 small cell lung
[10] = system: EKVX NSCLC
[11] = system: HCC-2998 colon
[12] = system: HCT-116 colon
[13] = system: HCT-15 colon
[14] = system: HL-60(TB) leukemia
[15] = system: HOP-18 NSCLC
[16] = system: HOP-62 NSCLC
[17] = system: HOP-92 NSCLC
[18] = system: HT29 colon
[19] = system: IGROV1 ovarian
[20] = system: K-562 leukemia
[21] = system: KM12 colon
[22] = system: KM20L2 colon
[23] = system: LOX IMVI melanoma
[24] = system: LXFL 529 NSCLC
[25] = system: M14 melanoma
[26] = system: M19-MEL melanoma
[27] = system: MOLT-4 leukemia
[28] = system: NCI-H23 lung
[29] = system: NCI-H460 lung
[30] = system: NCI-H522 lung
[31] = system: OVCAR-3 ovarian
[32] = system: OVCAR-4 ovarian
[33] = system: OVCAR-5 ovarian
[34] = system: OVCAR-8 ovarian
[35] = system: RPMI-8226 leukemia
[36] = system: SF-268 CNS
[37] = system: SF-295 CNS
[38] = system: SF-539 CNS
[39] = system: SK-MEL-28 melanoma
[40] = system: SK-MEL-5 melanoma
[41] = system: SK-OV-3 ovarian
[42] = system: SN12C renal
[43] = system: SNB-19 CNS
[44] = system: SNB-75 CNS
[45] = system: SNB-78 CNS
[46] = system: SR leukemia
[47] = system: SW-620 colon
[48] = system: TK-10 renal
[49] = system: U251 CNS
[50] = system: UACC-257 melanoma
[51] = system: UACC-62 melanoma
[52] = system: UO-31 renal
[53] = system: XF 498 CNS
[54] = system: COLO 205 colon
[55] = system: MALME-3M melanoma
[56] = system: NCI-H226 lung
[57] = system: RXF 393 renal
[58] = system: SK-MEL-2 melanoma

Work on `CCN(CC)CCN1CCc2c([nH]c3ccccc23)C1c1cccnc1` (stereo unspecified) yielded a TGI [1] of over 100 µM, a TGI [2] of over 100 µM and a TGI [3] of over 100 µM. For the same molecule, the TGI [4] was over 100 µM, the TGI [5] was over 100 µM and the TGI [6] was over 100 µM. For the same molecule, the TGI [7] was over 100 µM, the TGI [8] was over 100 µM and the TGI [9] was over 100 µM. It also gave a TGI [10] of over 100 µM, a TGI [11] of over 100 µM and a TGI [12] of over 100 µM. For the same molecule, the TGI [13] was over 100 µM, the TGI [14] was over 100 µM and the TGI [15] was over 100 µM. For the same molecule, the TGI [16] was over 100 µM, the TGI [17] was over 100 µM and the TGI [18] was over 100 µM. It also gave a TGI [19] of over 100 µM, a TGI [20] of over 100 µM and a TGI [21] of over 100 µM. The TGI [22] was over 100 µM, the TGI [23] was over 100 µM and the TGI [24] was over 100 µM. It also gave a TGI [25] of over 100 µM, a TGI [26] of over 100 µM and a TGI [27] of over 100 µM. For the same molecule, the TGI [28] was over 100 µM, the TGI [29] was over 100 µM and the TGI [30] was over 100 µM. The TGI [31] was over 100 µM, the TGI [32] was over 100 µM and the TGI [33] was over 100 µM. It also gave a TGI [34] of over 100 µM, a TGI [35] of over 100 µM and a TGI [36] of over 100 µM. For the same molecule, the TGI [37] was over 100 µM, the TGI [38] was over 100 µM and the TGI [39] was over 100 µM. It also gave a TGI [40] of over 100 µM, a TGI [41] of over 100 µM and a TGI [42] of over 100 µM. The TGI [43] was over 100 µM, the TGI [44] was over 100 µM and the TGI [45] was over 100 µM. The TGI [46] was over 100 µM, the TGI [47] was over 100 µM and the TGI [48] was over 100 µM. For the same molecule, the TGI [49] was over 100 µM, the TGI [50] was over 100 µM and the TGI [51] was over 100 µM. For the same molecule, the TGI [52] was over 100 µM and the TGI [53] was over 100 µM.
In the case of `N#CCCN(CCC#N)c1ccc(/C=C2\N=C(c3cc([N+](=O)[O-])ccc3Cl)N(S(=O)(=O)c3ccccc3)C2=O)cc1`, the TGI [3] is reported as over 100 µM, the TGI [4] is reported as over 100 µM and the TGI [5] is reported as over 100 µM. The TGI [6] was over 100 µM, the TGI [54] was over 100 µM and the TGI [7] was over 100 µM. The TGI [8] was over 100 µM, the TGI [9] was over 100 µM and the TGI [10] was over 100 µM. The TGI [11] was over 100 µM, the TGI [12] was over 100 µM and the TGI [13] was over 100 µM. It also gave a TGI [15] of over 100 µM, a TGI [16] of over 100 µM and a TGI [17] of over 100 µM. It also gave a TGI [19] of over 100 µM, a TGI [20] of over 100 µM and a TGI [21] of over 100 µM. For the same molecule, the TGI [22] was over 100 µM, the TGI [23] was over 100 µM and the TGI [24] was over 100 µM. For the same molecule, the TGI [26] was over 100 µM, the TGI [55] was over 100 µM and the TGI [27] was over 100 µM. It also gave a TGI [56] of over 100 µM, a TGI [28] of over 100 µM and a TGI [30] of over 100 µM. For the same molecule, the TGI [31] was over 100 µM, the TGI [32] was over 100 µM and the TGI [33] was over 100 µM. The TGI [34] was over 100 µM, the TGI [35] was over 100 µM and the TGI [57] was over 100 µM. For the same molecule, the TGI [36] was over 100 µM, the TGI [37] was over 100 µM and the TGI [38] was over 100 µM. The TGI [58] was over 100 µM, the TGI [39] was over 100 µM and the TGI [40] was over 100 µM. The TGI [41] was over 100 µM, the TGI [42] was over 100 µM and the TGI [43] was over 100 µM. It also gave a TGI [45] of over 100 µM, a TGI [46] of over 100 µM and a TGI [47] of over 100 µM. The TGI [48] was over 100 µM, the TGI [49] was over 100 µM and the TGI [51] was over 100 µM. It also gave a TGI [52] of over 100 µM and a TGI [53] of over 100 µM.
`CCCCCCCCCCCCCC(=S)N/C=C/OC` gave a TGI [1] of over 100 µM, a TGI [2] of 86.2 µM and a TGI [3] of over 100 µM. The TGI [4] was 96.4 µM, the TGI [6] was 56.2 µM and the TGI [54] was 71.4 µM. It also gave a TGI [7] of over 100 µM, a TGI [8] of 48.3 µM and a TGI [10] of 81.7 µM. The TGI [11] was 45.9 µM, the TGI [12] was over 100 µM and the TGI [13] was 53.3 µM. The TGI [14] was 36.8 µM, the TGI [15] was over 100 µM and the TGI [16] was over 100 µM. The TGI [17] was 74.5 µM, the TGI [18] was 50.1 µM and the TGI [19] was over 100 µM. For the same molecule, the TGI [21] was 81.9 µM, the TGI [22] was over 100 µM and the TGI [23] was 46.8 µM. It also gave a TGI [24] of over 100 µM, a TGI [25] of over 100 µM and a TGI [26] of 99.6 µM. It also gave a TGI [55] of over 100 µM, a TGI [56] of over 100 µM and a TGI [28] of 74 µM. The TGI [29] was over 100 µM, the TGI [30] was 46.3 µM and the TGI [31] was 56.1 µM. For the same molecule, the TGI [32] was over 100 µM, the TGI [33] was over 100 µM and the TGI [34] was over 100 µM. For the same molecule, the TGI [35] was 51.5 µM, the TGI [57] was 54.8 µM and the TGI [36] was over 100 µM. For the same molecule, the TGI [37] was 85.4 µM, the TGI [38] was over 100 µM and the TGI [58] was 73 µM. The TGI [39] was over 100 µM, the TGI [40] was 61.7 µM and the TGI [41] was over 100 µM. The TGI [42] was over 100 µM, the TGI [43] was over 100 µM and the TGI [44] was over 100 µM. The TGI [45] was over 100 µM, the TGI [47] was over 100 µM and the TGI [48] was over 100 µM. For the same molecule, the TGI [49] was 53.1 µM, the TGI [50] was 57 µM and the TGI [51] was 71.3 µM. It also gave a TGI [52] of 95.6 µM and a TGI [53] of 51.9 µM.

Reference: PubChem BioAssay (NCI)
